Source: US9409884B2 (Rigel Pharmaceuticals, Inc., priority 2012, dated 2016)

Molecular target: AMPK
Assay: AMPK activation, enzyme-linked immunosorbent assay
Type: biochemical
Details: Table 12, compounds of Table 5
Outline: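 Read-out: ELISA, used to detect compound-driven activation of AMPK.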

SMILES | EC50 [µM]
O=C(NC1CCN(Cc2ccccc2)CC1)c1ccc(OC2CCN(c3ccc(C(F)(F)F)cc3)CC2)c(Cl)c1 [Compound 5-17] | < 1
O=C(NC1CCN(Cc2ccccc2)CC1)c1ccc(OC2CCN(C(=O)c3ccc(C(F)(F)F)cc3)CC2)c(Cl)c1 [Compound 5-18, N-(1-benzylpiperidin-4-yl)-3-chloro-4-(1-(4-(trifluoromethyl)benzoyl)piperidin-4-yloxy)benzamide] | < 1
O=C(NC1CCN(Cc2ccccc2)CC1)c1ccc(OC2CCN(Cc3ccc(F)cc3)CC2)c(Cl)c1 [Compound 5-19, N-(1-benzylpiperidin-4-yl)-3-chloro-4-(1-(4-fluorobenzyl)piperidin-4-yloxy)benzamide] | < 1
CC(C)(C)c1ccc(CN2CCC(Oc3ccc(C(=O)NC4CCN(Cc5ccccc5)CC4)cc3F)CC2)cc1 [Compound 5-20, N-(1-benzylpiperidin-4-yl)-3-fluoro-4-(1-(4-tert-butylbenzyl)piperidin-4-yloxy)benzamide] | < 1
CC(c1ccccc1)N1CCC(Oc2ccc(C(=O)NC3CCN(Cc4ccccc4)CC3)cc2F)CC1 (stereo not shown) [Compound 5-21, N-(1-benzylpiperidin-4-yl)-3-fluoro-4-(1-(1-phenylethyl)piperidin-4-yloxy)benzamide] | 1 to 10
O=C(NC1CCN(Cc2ccccc2)CC1)c1ccc(OC2CCN(C(=O)c3ccc(F)cc3)CC2)c(Cl)c1 [Compound 5-22, N-(1-benzylpiperidin-4-yl)-3-chloro-4-(1-(4-fluorobenzoyl)piperidin-4-yloxy)benzamide] | 1 to 10
O=C(NC1CCN(Cc2ccccc2)CC1)c1ccc(OC2CCN(c3ccc(C(F)(F)F)cc3)CC2)c(F)c1 [Compound 5-23, N-(1-benzylpiperidin-4-yl)-3-fluoro-4-(1-(4-(trifluoromethyl)phenyl)piperidin-4-yloxy)benzamide] | < 1
O=C(NC1CCN(Cc2ccccc2)CC1)c1ccc(OC2CCN(Cc3ccccc3C(F)(F)F)CC2)c(Cl)c1 [Compound 5-24, N-(1-benzylpiperidin-4-yl)-3-chloro-4-(1-(2-(trifluoromethyl)benzyl)piperidin-4-yloxy)benzamide] | 10 to 20
O=C(NC1CCN(c2ccccc2)CC1)c1ccc(OC2CCN(c3ccc(C(F)(F)F)cc3)CC2)c(F)c1 [Compound 5-25, 3-fluoro-N-(1-phenylpiperidin-4-yl)-4-(1-(4-(trifluoromethyl)phenyl)piperidin-4-yloxy)benzamide] | > 100
CC(C)(C)OC(=O)N1CCC(NC(=O)c2ccc(OC3CCN(c4ccc(C(F)(F)F)cc4)CC3)c(F)c2)CC1 [Compound 5-26, tert-butyl 4-(3-fluoro-4-(1-(4-(trifluoromethyl)phenyl)piperidin-4-yloxy)benzamido)piperidine-1-carboxylate] | < 1
O=C(NC1CCN(Cc2ccc(F)cc2)CC1)c1ccc(OC2CCN(c3ccc(C(F)(F)F)cc3)CC2)c(F)c1 [Compound 5-27, 3-fluoro-N-(1-(4-fluorobenzyl)piperidin-4-yl)-4-(1-(4-(trifluoromethyl)phenyl)piperidin-4-yloxy)benzamide] | < 1
O=C(NC1CCN(Cc2ccncc2)CC1)c1ccc(OC2CCN(c3ccc(C(F)(F)F)cc3)CC2)c(F)c1 [Compound 5-28, 3-fluoro-N-(1-(pyridin-4-ylmethyl)piperidin-4-yl)-4-(1-(4-(trifluoromethyl)phenyl)piperidin-4-yloxy)benzamide] | < 1
O=C(NC1CCN(Cc2cccnc2)CC1)c1ccc(OC2CCN(c3ccc(C(F)(F)F)cc3)CC2)c(F)c1 [Compound 5-29, 3-fluoro-N-(1-(pyridin-3-ylmethyl)piperidin-4-yl)-4-(1-(4-(trifluoromethyl)phenyl)piperidin-4-yloxy)benzamide] | < 1
CC(C)(C)C(=O)N1CCC(NC(=O)c2ccc(OC3CCN(c4ccc(C(F)(F)F)cc4)CC3)c(F)c2)CC1 [Compound 5-30, 3-fluoro-N-(1-pivaloylpiperidin-4-yl)-4-(1-(4-(trifluoromethyl)phenyl)piperidin-4-yloxy)benzamide] | < 1
O=C(NC1CCN(C(=O)c2ccc(F)cc2)CC1)c1ccc(OC2CCN(c3ccc(C(F)(F)F)cc3)CC2)c(F)c1 [Compound 5-31, 3-fluoro-N-(1-(4-fluorobenzoyl)piperidin-4-yl)-4-(1-(4-(trifluoromethyl)phenyl)piperidin-4-yloxy)benzamide] | < 1
O=C(NC1CCN(Cc2ccccn2)CC1)c1ccc(OC2CCN(c3ccc(C(F)(F)F)cc3)CC2)c(F)c1 [Compound 5-32, 3-fluoro-N-(1-(pyridin-2-ylmethyl)piperidin-4-yl)-4-(1-(4-(trifluoromethyl)phenyl)piperidin-4-yloxy)benzamide] | < 1
COC(=O)c1ccc(CN2CCC(NC(=O)c3ccc(OC4CCN(c5ccc(C(F)(F)F)cc5)CC4)c(F)c3)CC2)cc1 [Compound 5-33, methyl 4-((4-(3-fluoro-4-(1-(4-(trifluoromethyl)phenyl)piperidin-4-yloxy)benzamido)piperidin-1-yl)methyl)benzoate] | < 1
CC(C)S(=O)(=O)N1CCC(NC(=O)c2ccc(OC3CCN(c4ccc(C(F)(F)F)cc4)CC3)c(F)c2)CC1 [Compound 5-34, 3-fluoro-N-(1-(isopropylsulfonyl)piperidin-4-yl)-4-(1-(4-(trifluoromethyl)phenyl)piperidin-4-yloxy)benzamide] | < 1
O=C(O)c1ccc(CN2CCC(NC(=O)c3ccc(OC4CCN(c5ccc(C(F)(F)F)cc5)CC4)c(F)c3)CC2)cc1 [Compound 5-35, 4-((4-(3-fluoro-4-(1-(4-(trifluoromethyl)phenyl)piperidin-4-yloxy)benzamido)piperidin-1-yl)methyl)benzoic acid] | 1 to 10
CC(C)(C)c1ccc(CN2CCC(Oc3ccc(C(=O)NC4CCN(c5ccccc5)CC4)cc3F)CC2)cc1 [Compound 5-36, 4-(1-(4-tert-butylbenzyl)piperidin-4-yloxy)-3-fluoro-N-(1-phenylpiperidin-4-yl)benzamide] | < 1
O=C(NC1CCN(Cc2ccccc2)CC1)c1ccc(OC2CCN(Cc3ccncc3)CC2)c(F)c1 [Compound 5-37, N-(1-benzylpiperidin-4-yl)-3-fluoro-4-(1-(pyridin-4-ylmethyl)piperidin-4-yloxy)benzamide] | < 1
O=C(NC1CCN(Cc2ccccc2)CC1)c1ccc(OC2CCN(Cc3cccnc3)CC2)c(F)c1 [Compound 5-38, N-(1-benzylpiperidin-4-yl)-3-fluoro-4-(1-(pyridin-3-ylmethyl)piperidin-4-yloxy)benzamide] | 1 to 10
O=C(NC1CCN(Cc2ccccc2)CC1)c1ccc(OC2CCN(Cc3ccccn3)CC2)c(F)c1 [Compound 5-39, N-(1-benzylpiperidin-4-yl)-3-fluoro-4-(1-(pyridin-2-ylmethyl)piperidin-4-yloxy)benzamide] | 1 to 10
O=C(NC1CCN(C(=O)c2ccncc2)CC1)c1ccc(OC2CCN(c3ccc(C(F)(F)F)cc3)CC2)c(F)c1 [Compound 5-40, 3-fluoro-N-(1-isonicotinoylpiperidin-4-yl)-4-(1-(4-(trifluoromethyl)phenyl)piperidin-4-yloxy)benzamide] | < 1
N#Cc1ccc(CN2CCC(Oc3ccc(C(=O)NC4CCN(Cc5ccccc5)CC4)cc3F)CC2)cc1 [Compound 5-41, N-(1-benzylpiperidin-4-yl)-4-(1-(4-cyanobenzyl)piperidin-4-yloxy)-3-fluorobenzamide] | < 1
